Measurements from patent US20170333393A1, “INJECTABLE ANTIOXIDANT FORMULATION FOR INTRAVENOUS USE OF SODIUM ASCORBATE IN HIGH DOSAGE, N-ACETYL CYSTEINE, AND DEFEROXAMINE; METHOD OF ADMINISTRATION AND USE FOR PREVENTING INJURY DUE TO REPERFUSION; AND KIT” (UNIVERSIDAD DE CHILE, priority 2014, published 2017).

Key:
[1] = system: isolated rat hearts; assay: Langendorff isolated heart model, ischemia/reperfusion; recovery of contractibility; set-up: species or system Sprague-Dawley rat; settings: 30 min regional ischemia, 60 min reperfusion; N-acetyl cysteine 36.8 mmol/L, deferoxamine 3.9 mmol/L; N=3 rats per group
Description: Laboratory trials in murine model, by means of the use of the Langendorff isolated heart model, allowed to preliminarily establish the contribution of the secondary components of the solution in isolated form, in conjunction and in tri-association with sodium ascorbate on the attenuation of lethal reperfusion by means of the evaluation of the percentage of recovery of contractibility, subsequent to the reestablishment of the blood flow, […]
Sprague-Dawley adult male rats (250 to 300 g) were anesthetized with pentobarbital (80 mg/kg IP). Heparine (100 U/kg IV) was administered and the hearts were rapidly extracted and perfused with Krebs-Henseleit solution oxygenated in a Langendorff perfusion system at 37° C. […] The ventricular pressure was measured with a latex balloon inserted, in the left ventricular and connected to a pressure transductor. […]
Evaluation of the injury: The capacity was measured of both components isolated, in conjunction and in tri-association with sodium ascorbate in high dosage, in order to recover the cardiac contractibility, loss associated to the injury due to reperfusion.
For the analysis of the results parametric statistic of the continuous variables was used, expressing the position in terms of arithmetic mean and dispersion based on the standard deviation. The differences between multiple groups were analysed by means of ANOVA with Bonferroni test as Post-Hoc. […]

[2] = system: patients diagnosed with acute myocardium infarction with indication of primary angioplasty; assay: PREVEC Phase II randomized, double blind, placebo controlled clinical trial; left ventricular ejection fraction by cardiac magnetic resonance; assay type: in vivo, human
Experimental: In a group of 50 patients subjected to a primary angioplasty due to acute infarction diagnosis, treated only with massive dosage of sodium ascorbate (equivalent dosage to the one used in the three component formulation), a recovery was observed that has never before been reported of the cardiac function in a medium term, only referable to an attenuation of the late effects of the injury due to reperfusion. The evaluation was carried out by means of cardiac magnetic resonance, technique considered the present gold standard for this kind of studies.
A randomized, double blind, placebo controlled clinical trial was applied to patients diagnosed with acute myocardium infarction with indication of primary angioplasty, previously enrolled.
As inclusion criteria, was defined: Individuals of any sex older than 18 years of age; Latency of admission of up to 12 hours since presenting symptoms; First myocardium infarction; Killip 1 and 2; Capacity and willingness to sign consent form.
As exclusion criteria was established: Renal or hepathic insufficiency history; Cardiac failure history (NYHA III, IV); Cardiogenic shock; Comorbility that determines a life expectancy<6 months; Participation in another investigation; Pregnancy; Glucose 6—Phosphate Dehydrogenase deficiency.
Patients were administered an oral dose of vitamin E (800 IU), followed by a sodium ascorbate infusion (320 mmol/L). The placebo group received an inert infusion of sodium chloride solution of the same osmolarity as the sodium ascorbate infusion. Serial blood samples were taken to analyse biomarkers related to myocardium, injury, oxidative stress and inflammation in order to evaluated efficiency on injury due to early reperfusion. […]
The statistical analysis of the preliminary results, was carried out using non parametric statistics, using the median as position measurement, interquartile range as dispersion measurement and the Mann-Whitney U test to determine the statistical significance. Differences between the multiple groups was analysed by means of a Kruskal-Wallis test. […]

Compound	improvement of recovery of contractibility regarding the control group (Placebo) [1]	early cardiac function (left ventricular ejection fraction), treated versus placebo ([2]; day 6 after primary angioplasty, sodium ascorbate infusion 320 mmol/L after oral vitamin E 800 IU)	change in left ventricular ejection (difference between day 84 and day 6), treated versus placebo ([2]; difference of values 84 and six days after angioplasty, p<0.05)	left ventricular ejection fraction, higher in treated patients versus placebo ([2]; three months (day 84) after primary angioplasty, sodium ascorbate infusion 320 mmol/L after oral vitamin E 800 IU, p<0.05)
CC(=O)N[C@@H](CS)C(=O)O [N-acetyl cysteine]	189%	–	–	–
CC(=O)N(O)CCCCCNC(=O)CCC(=O)N(O)CCCCCNC(=O)CCC(=O)N(O)CCCCCN [deferoxamine]	113%	–	–	–
O=C1O[C@H]([C@@H](O)CO)C([O-])=C1O.[Na+] [sodium ascorbate]	–	did not show any difference	significantly higher	33%
